# Laboratory results as given in paper PMC7070898 (Clinical and Translational Science, 2019).
# Assay: Safety and tolerability
# Details: for Subjects with TEAEs: all evobrutinib doses pooled
# [1] = one subject, 200 mg single dose, day 11
# [2] = part 1 single dosing, pooled evobrutinib
# [3] = part 2 multiple dosing, pooled evobrutinib
smiles,measurement,setting,value
C=CC(=O)N1CCC(CNc2ncnc(N)c2-c2ccc(Oc3ccccc3)cc2)CC1 [evobrutinib],TEAE: Abdominal pain,"SAD 100 mg, n = 6","0 (0.0) n (%), (number of events)"
same,TEAE: Amylase increased,"SAD 100 mg, n = 6","0 (0.0) n (%), (number of events)"
same,TEAE: Application site pruritus (due to ECG stickers),"SAD 100 mg, n = 6","0 (0.0) n (%), (number of events)"
same,TEAE: Back pain,"SAD 100 mg, n = 6","0 (0.0) n (%), (number of events)"
same,TEAE: Contact dermatitis,"SAD 100 mg, n = 6","0 (0.0) n (%), (number of events)"
same,TEAE: Dizziness,"SAD 100 mg, n = 6","0 (0.0) n (%), (number of events)"
same,TEAE: Dry eye,"SAD 100 mg, n = 6","0 (0.0) n (%), (number of events)"
same,TEAE: Dry mouth,"SAD 100 mg, n = 6","0 (0.0) n (%), (number of events)"
same,TEAE: Dyspepsia,"SAD 100 mg, n = 6","0 (0.0) n (%), (number of events)"
same,TEAE: Excoriation,"SAD 100 mg, n = 6","0 (0.0) n (%), (number of events)"
same,TEAE: Headache,"SAD 100 mg, n = 6","0 (0.0) n (%), (number of events)"
same,TEAE: Lipase increased,"SAD 100 mg, n = 6","0 (0.0) n (%), (number of events)"
same,TEAE: Multiple injuries,"SAD 100 mg, n = 6","0 (0.0) n (%), (number of events)"
same,TEAE: Nasal congestion,"SAD 100 mg, n = 6","1 (16.7) (1) n (%), (number of events)"
same,TEAE: Noncardiac chest pain,"SAD 100 mg, n = 6","0 (0.0) n (%), (number of events)"
same,TEAE: Odynophagia,"SAD 100 mg, n = 6","0 (0.0) n (%), (number of events)"
same,TEAE: Overall total,"SAD 100 mg, n = 6","1 (16.7) (1) n (%), (number of events)"
same,TEAE: URTI,"SAD 100 mg, n = 6","0 (0.0) n (%), (number of events)"
same,TEAE: Abdominal pain,"SAD 200 mg, n = 6","0 (0.0) n (%), (number of events)"
same,TEAE: Amylase increased,"SAD 200 mg, n = 6","1 (16.7) (1) n (%), (number of events)"
same,TEAE: Application site pruritus (due to ECG stickers),"SAD 200 mg, n = 6","0 (0.0) n (%), (number of events)"
same,TEAE: Back pain,"SAD 200 mg, n = 6","0 (0.0) n (%), (number of events)"
same,TEAE: Contact dermatitis,"SAD 200 mg, n = 6","0 (0.0) n (%), (number of events)"
same,TEAE: Dizziness,"SAD 200 mg, n = 6","1 (16.7) (1) n (%), (number of events)"
same,TEAE: Dry eye,"SAD 200 mg, n = 6","0 (0.0) n (%), (number of events)"
same,TEAE: Dry mouth,"SAD 200 mg, n = 6","0 (0.0) n (%), (number of events)"
same,TEAE: Dyspepsia,"SAD 200 mg, n = 6","0 (0.0) n (%), (number of events)"
same,TEAE: Excoriation,"SAD 200 mg, n = 6","1 (16.7) (1) n (%), (number of events)"
same,TEAE: Headache,"SAD 200 mg, n = 6","0 (0.0) n (%), (number of events)"
same,TEAE: Lipase increased,"SAD 200 mg, n = 6","1 (16.7) (1) n (%), (number of events)"
same,TEAE: Multiple injuries,"SAD 200 mg, n = 6","0 (0.0) n (%), (number of events)"
same,TEAE: Nasal congestion,"SAD 200 mg, n = 6","0 (0.0) n (%), (number of events)"
same,TEAE: Noncardiac chest pain,"SAD 200 mg, n = 6","0 (0.0) n (%), (number of events)"
same,TEAE: Odynophagia,"SAD 200 mg, n = 6","0 (0.0) n (%), (number of events)"
same,TEAE: Overall total,"SAD 200 mg, n = 6","2 (33.3) (4) n (%), (number of events)"
same,TEAE: URTI,"SAD 200 mg, n = 6","0 (0.0) n (%), (number of events)"
same,TEAE: Abdominal pain,"SAD 350 mg, n = 6","0 (0.0) n (%), (number of events)"
same,TEAE: Amylase increased,"SAD 350 mg, n = 6","0 (0.0) n (%), (number of events)"
same,TEAE: Application site pruritus (due to ECG stickers),"SAD 350 mg, n = 6","0 (0.0) n (%), (number of events)"
same,TEAE: Back pain,"SAD 350 mg, n = 6","0 (0.0) n (%), (number of events)"
same,TEAE: Contact dermatitis,"SAD 350 mg, n = 6","0 (0.0) n (%), (number of events)"
same,TEAE: Dizziness,"SAD 350 mg, n = 6","0 (0.0) n (%), (number of events)"
same,TEAE: Dry eye,"SAD 350 mg, n = 6","0 (0.0) n (%), (number of events)"
same,TEAE: Dry mouth,"SAD 350 mg, n = 6","0 (0.0) n (%), (number of events)"
same,TEAE: Dyspepsia,"SAD 350 mg, n = 6","0 (0.0) n (%), (number of events)"
same,TEAE: Excoriation,"SAD 350 mg, n = 6","0 (0.0) n (%), (number of events)"
same,TEAE: Headache,"SAD 350 mg, n = 6","0 (0.0) n (%), (number of events)"
same,TEAE: Lipase increased,"SAD 350 mg, n = 6","0 (0.0) n (%), (number of events)"
same,TEAE: Multiple injuries,"SAD 350 mg, n = 6","1 (16.7) (1) n (%), (number of events)"
same,TEAE: Nasal congestion,"SAD 350 mg, n = 6","0 (0.0) n (%), (number of events)"
same,TEAE: Noncardiac chest pain,"SAD 350 mg, n = 6","0 (0.0) n (%), (number of events)"
same,TEAE: Odynophagia,"SAD 350 mg, n = 6","0 (0.0) n (%), (number of events)"
same,TEAE: Overall total,"SAD 350 mg, n = 6","1 (16.7) (1) n (%), (number of events)"
same,TEAE: URTI,"SAD 350 mg, n = 6","0 (0.0) n (%), (number of events)"
same,TEAE: Abdominal pain,"SAD 500 mg, n = 6","0 (0.0) n (%), (number of events)"
same,TEAE: Amylase increased,"SAD 500 mg, n = 6","0 (0.0) n (%), (number of events)"
same,TEAE: Application site pruritus (due to ECG stickers),"SAD 500 mg, n = 6","0 (0.0) n (%), (number of events)"
same,TEAE: Back pain,"SAD 500 mg, n = 6","0 (0.0) n (%), (number of events)"
same,TEAE: Contact dermatitis,"SAD 500 mg, n = 6","0 (0.0) n (%), (number of events)"
same,TEAE: Dizziness,"SAD 500 mg, n = 6","0 (0.0) n (%), (number of events)"
same,TEAE: Dry eye,"SAD 500 mg, n = 6","1 (16.7) (1) n (%), (number of events)"
same,TEAE: Dry mouth,"SAD 500 mg, n = 6","0 (0.0) n (%), (number of events)"
same,TEAE: Dyspepsia,"SAD 500 mg, n = 6","0 (0.0) n (%), (number of events)"
same,TEAE: Excoriation,"SAD 500 mg, n = 6","0 (0.0) n (%), (number of events)"
same,TEAE: Headache,"SAD 500 mg, n = 6","1 (16.7) (1) n (%), (number of events)"
same,TEAE: Lipase increased,"SAD 500 mg, n = 6","0 (0.0) n (%), (number of events)"
same,TEAE: Multiple injuries,"SAD 500 mg, n = 6","0 (0.0) n (%), (number of events)"
same,TEAE: Nasal congestion,"SAD 500 mg, n = 6","0 (0.0) n (%), (number of events)"
same,TEAE: Noncardiac chest pain,"SAD 500 mg, n = 6","0 (0.0) n (%), (number of events)"
same,TEAE: Odynophagia,"SAD 500 mg, n = 6","1 (16.7) (1) n (%), (number of events)"
same,TEAE: Overall total,"SAD 500 mg, n = 6","2 (33.3) (3) n (%), (number of events)"
same,TEAE: URTI,"SAD 500 mg, n = 6","0 (0.0) n (%), (number of events)"
same,TEAE: Abdominal pain,"SAD pooled active, n = 36","0 (0.0) n (%), (number of events)"
same,TEAE: Amylase increased,"SAD pooled active, n = 36","1 (2.8) (1) n (%), (number of events)"
same,TEAE: Application site pruritus (due to ECG stickers),"SAD pooled active, n = 36","0 (0.0) n (%), (number of events)"
same,TEAE: Back pain,"SAD pooled active, n = 36","1 (2.8) (1) n (%), (number of events)"
same,TEAE: Contact dermatitis,"SAD pooled active, n = 36","2 (5.6) (2) n (%), (number of events)"
same,TEAE: Dizziness,"SAD pooled active, n = 36","1 (2.8) (1) n (%), (number of events)"
same,TEAE: Dry eye,"SAD pooled active, n = 36","1 (2.8) (1) n (%), (number of events)"
same,TEAE: Dry mouth,"SAD pooled active, n = 36","0 (0.0) n (%), (number of events)"
same,TEAE: Dyspepsia,"SAD pooled active, n = 36","1 (2.8) (1) n (%), (number of events)"
same,TEAE: Excoriation,"SAD pooled active, n = 36","1 (2.8) (1) n (%), (number of events)"
same,TEAE: Headache,"SAD pooled active, n = 36","2 (5.6) (3) n (%), (number of events)"
same,TEAE: Lipase increased,"SAD pooled active, n = 36","1 (2.8) (1) n (%), (number of events)"
same,TEAE: Multiple injuries,"SAD pooled active, n = 36","1 (2.8) (1) n (%), (number of events)"
same,TEAE: Nasal congestion,"SAD pooled active, n = 36","1 (2.8) (1) n (%), (number of events)"
same,TEAE: Noncardiac chest pain,"SAD pooled active, n = 36","0 (0.0) n (%), (number of events)"
same,TEAE: Odynophagia,"SAD pooled active, n = 36","1 (2.8) (1) n (%), (number of events)"
same,TEAE: Overall total,"SAD pooled active, n = 36","9 (25.0) (15) n (%), (number of events)"
same,TEAE: URTI,"SAD pooled active, n = 36","0 (0.0) n (%), (number of events)"
same,nontolerated dose,after SAD or MAD administrations,no nontolerated dose could be defined
same,Subjects with TEAEs,after multiple dosing,48.1%
same,Subjects with TEAEs,after single dosing,25%
same,toxicity grade of increased amylase,[1],3 grade
same,toxicity grade of increased lipase (dose‐limiting TEAE),[1],4 grade
same,Subjects with contact dermatitis at locations of ECG pads,[2],5.6%
same,Subjects with headache,[2],5.6%
same,severity of TEAEs,part 2 multiple dosing,All TEAEs reported were mild and no dose‐limiting adverse events were reported
same,Subjects with fatigue,[3],7.4%
same,Subjects with gastrointestinal TEAEs,[3],18.5%
same,Subjects with headache,[3],11.1%
same,Subjects with skin irritation due to ECG pads,[3],7.4%
same,Subjects with upper respiratory tract infection,[3],7.4%
same,deaths or treatment-related SAEs,parts 1 and 2,no deaths or SAEs related to treatment
